# Biological target: natural firefly luciferase (Fluc) (Photinus pyralis, UniProt P08659)
# Test: Measurement of emission spectrum with natural firefly luciferase, ATP magnesium salt and luminescent substrate
# Assay type: biochemical
# Details: 100 μM substrate solution, KPB pH 8.0, Fluc 1 mg/mL, 10 mM ATP magnesium salt, measured for 180 seconds
# Method: The emission spectra were measured using the luminescent substrates represented by the structural formulas (1-1) to (1-10) synthesized as described above and the luminescent substrate represented by the structural formula (a) below. The luminescent substrate represented by the structural formula (a) was prepared according to “Synthesis of Luminescent Substrate C” in WO 2021/193069 A1 (PTL 4).
# Specifically, 5 μL of 500 mM potassium phosphate buffer (KPB, pH 8.0), 5 μL of a 100 μM solution of each luminescent substrate, 5 µL of a 1 mg/mL solution of natural firefly luciferase (Fluc), and 10 μL of a 10 mM ATP magnesium salt solution were mixed, and the emission spectrum was measured for 180 seconds using a luminescence measurement device (AB-1850 manufactured by ATTO Corporation). However, the substrate concentration for the luminescent substrate represented by the structural formula (a) was set to 1 mM, and the substrate concentration for the luminescent substrate represented by the structural formula (1-6) was set to 10 mM. Note that FIGS. 1 to 3 illustrate emission spectra normalized so that the maximum emission intensity was 1.
# natural firefly luciferase (Fluc), sequence (P08659 whole entry): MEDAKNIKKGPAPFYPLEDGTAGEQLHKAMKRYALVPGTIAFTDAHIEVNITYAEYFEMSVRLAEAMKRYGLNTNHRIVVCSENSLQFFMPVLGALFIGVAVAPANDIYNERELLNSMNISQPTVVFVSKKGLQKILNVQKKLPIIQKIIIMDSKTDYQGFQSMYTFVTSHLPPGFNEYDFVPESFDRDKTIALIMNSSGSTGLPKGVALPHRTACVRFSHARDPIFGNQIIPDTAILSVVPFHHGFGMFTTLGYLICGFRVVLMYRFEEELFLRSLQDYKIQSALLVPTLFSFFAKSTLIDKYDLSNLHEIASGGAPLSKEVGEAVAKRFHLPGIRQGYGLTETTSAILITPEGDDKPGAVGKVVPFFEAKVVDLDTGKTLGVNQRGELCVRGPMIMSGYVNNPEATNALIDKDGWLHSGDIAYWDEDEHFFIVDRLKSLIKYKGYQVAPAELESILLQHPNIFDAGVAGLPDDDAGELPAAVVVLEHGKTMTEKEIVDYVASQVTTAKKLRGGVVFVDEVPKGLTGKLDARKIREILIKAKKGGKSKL
row,Compound,Maximum emission wavelength for each substrate (λmax)
1,Cn1cccc1/C=C/c1ccc(C2=N[C@@H](C(=O)O)CS2)cc1 [Compound of structural formula (1-3)],640 nm
2,CN(C)c1cnc(/C=C/c2ccc(C3=N[C@@H](C(=O)O)CS3)nc2)s1 [Compound of structural formula (1-9)],760 nm
3,O=C(O)[C@H]1CSC(c2ccc(/C=C/c3ccc[nH]3)cc2)=N1 [Compound of structural formula (1-1)],640 nm
4,CN(C)c1ncc(/C=C/c2ccc(C3=N[C@@H](C(=O)O)CS3)cc2)s1 [Compound of structural formula (1-8)],680 nm
5,CN(C)c1cnc(/C=C/c2ccc(C3=N[C@@H](C(=O)O)CS3)cn2)s1 [Compound of structural formula (1-10)],730 nm
6,Cn1cccc1/C=C/c1ccc(C2=N[C@@H](C(=O)O)CS2)nc1 [Compound of structural formula (1-4)],660 nm
7,CN(C)c1ncc(/C=C/c2ccc(C3=N[C@@H](C(=O)O)CS3)nc2)s1 [Compound of structural formula (1-7)],710 nm
8,O=C(O)[C@H]1CSC(c2ccc(/C=C/c3ccc[nH]3)cn2)=N1 [Compound of structural formula (1-2)],660 nm

# Reference: patent US20250368636A1, “NOVEL HETEROCYCLIC COMPOUND, SALT THEREOF, AND L[…] COMPOSITION” (The University of Electro-Communications, priority 2022, published 2025)
